# Tested on: EGFR (del19/T790M/C797S)
# Test: HTRF inhibitory activity assay against EGFR (del19/T790M/C797S) enzyme
# Type: biochemical
# Protocol: Inhibitory Activity Assay of the Compounds Disclosed Herein Against EGFR (del19/T790M/C797S), EGFR (L858R/T790M/C797S) or EGFR (WT) Enzymes
# The inhibitory effects of the compounds against EGFR (del19/T790M/C797S), EGFR (L858R/T790M/C797S) or EGFR (WT) enzyme activity was determined by using HTRF. The procedures are as follows:
# The WT or mutant EGFR proteins were incubated with a serially diluted compounds at 28° C. for 10 min followed by addition of biotin-labeled general tyrosine kinase (TK) substrate and ATP. The mixture was incubated at room temperature for 40 min for reaction. After the termination of the reaction, an Eu3+-Cryptate-labeled antibody against TK and streptavidin-XL665 were added and the mixture was incubated at room temperature for 60 min. The luminescences at 615 nm and 665 nm were detected and the ratio of 665/615 was calculated to quantify the level of TK substrate phosphorylation. Inhibition % and IC50 of the compounds were calculated relative to the control group.
row,SMILES,EGFR (del19/T790M/C797S) inhibition (%) (0.3 nM compound)
1,COc1cc(N2CCC(N3CCN(C)CC3)CC2)ccc1Nc1nc(NC2CCOCC2)c(-c2ccccc2)nc1C(N)=O [compound 113],+ (+ indicates an inhibition less than or equal to 20%)
2,"CN1CCN(C2CCN(c3ccc(Nc4nc(N[C@H]5CC[C@H](O)C5)c(-c5ccccc5)nc4C(N)=O)cc3)CC2)CC1 [compound 138, 5-(((1S,3S)-3-hydroxycyclopentyl)amino)-3-((4-(4-(4-methylpiperazin-1-yl)piperidin-1-yl)phenyl)amino)-6-phenylpyrazine-2-carboxamide]",++ (++ indicates an inhibition from 20% to 50%)
3,CN1CCN(C2CCN(c3ccc(Nc4nc(N[C@H]5C[C@H](O)C5)c(-c5cccc6[nH]ccc56)nc4C(N)=O)cc3F)CC2)CC1 [compound 534],+++ (+++ indicates an inhibition greater than 50%.)
4,CN1CCN(C2CCN(c3ccc(Nc4nc(NC5CC6(COC6)C5)c(-c5cc[nH]n5)nc4C(N)=O)cc3F)CC2)CC1 [compound 628],++ (++ indicates an inhibition from 20% to 50%)
5,CN1CCN(C2CCN(c3ccc(Nc4nc(NC5CC5)c(-c5ccnc6[nH]ccc56)nc4C(N)=O)cc3)CC2)CC1 [compound 610],+++ (+++ indicates an inhibition greater than 50%.)
6,CN1CCN(C2CCN(c3ccc(Nc4nc(NC5CC5)c(-c5ccncc5)nc4C(N)=O)cc3F)CC2)CC1 [compound 632],+++ (+++ indicates an inhibition greater than 50%.)
7,"CN1CCN(C2CCN(c3ccc(Nc4nc(NC5CCOCC5)c(N5CCCCC5)nc4C(N)=O)cc3)CC2)CC1 [compound 116, 3-((4-(4-(4-methylpiperazin-1-yl)piperidin-1-yl)phenyl)amino)-6-(piperidin-1-yl)-5-((tetrahydro-2H-pyran-4-yl)amino)pyrazine-2-carboxamide]",+ (+ indicates an inhibition less than or equal to 20%)
8,COc1cc(-c2nc(C(N)=O)c(Nc3ccc(N4CCC(N5CCN(C)CC5)CC4)cc3)nc2NC2CCOCC2)ccn1 [compound 67],+ (+ indicates an inhibition less than or equal to 20%)
9,CN1CCN(C2CCN(c3ccc(Nc4nc(NC5CC6(COC6)C5)c(-c5ccnc6[nH]ccc56)nc4C(N)=O)cc3F)CC2)CC1 [compound 630],+++ (+++ indicates an inhibition greater than 50%.)
10,NC(=O)c1nc(-c2ccccn2)c(NC2CCOC3(CC3)C2)nc1Nc1ccc(N2CCC(N3CCN(C4CC4)CC3)CC2)cc1 (centres unmarked) [compound 264],++ (++ indicates an inhibition from 20% to 50%)
11,CN1CCN(C2CCN(c3ccc(Nc4nc(N[C@H]5C[C@H](O)C5)c(-c5cc[nH]n5)nc4C(N)=O)cc3F)CC2)CC1 [compound 621],+++ (+++ indicates an inhibition greater than 50%.)
12,CN1CCN(C2CCN(c3ccc(Nc4nc(NC5CCOCC5)c(-c5cnn(C)c5)nc4C(N)=O)cc3)CC2)CC1 [compound 40],+ (+ indicates an inhibition less than or equal to 20%)
13,CN1CCN(C2CCN(c3ccc(Nc4nc(NC5CCOC6(CC6)C5)c(-c5ccccn5)nc4C(N)=O)cc3)CC2)CC1 (centres unmarked) [compound 263],++ (++ indicates an inhibition from 20% to 50%)
14,CN1CCN(C2CCN(c3ccc(Nc4nc(NC5CCOCC5)c(-c5ccc(C(F)F)cc5)nc4C(N)=O)cc3)CC2)CC1 [compound 101],+ (+ indicates an inhibition less than or equal to 20%)
15,CN1CCN(C2CCN(c3ccc(Nc4nc(NC5CCC5)c(-c5ccccc5)nc4C(N)=O)cc3)CC2)CC1 [compound 30],++ (++ indicates an inhibition from 20% to 50%)
16,CN1CCN(C2CCN(c3ccc(Nc4nc(NCCCS(C)(=O)=O)c(-c5ccccc5)nc4C(N)=O)cc3)CC2)CC1 [compound 27],+ (+ indicates an inhibition less than or equal to 20%)
17,CN1CCN(C2CCN(c3ccc(Nc4nc(NC5CCOCC5)c(-c5ccc(S(C)(=O)=O)cc5)nc4C(N)=O)cc3)CC2)CC1 [compound 46],+ (+ indicates an inhibition less than or equal to 20%)
18,CN1CCN(C2CCN(c3ccc(Nc4nc(NC5CCOCC5)c(-c5cccc(N)c5)nc4C(N)=O)cc3)CC2)CC1 [compound 92],++ (++ indicates an inhibition from 20% to 50%)
19,CN1CCN(C2CCN(c3ccc(Nc4nc(N[C@@H]5CCOC5)c(-c5ccncc5)nc4C(N)=O)cc3)CC2)CC1 [compound 642],+++ (+++ indicates an inhibition greater than 50%.)
20,COc1ccc(-c2nc(C(N)=O)c(Nc3ccc(N4CCC(N5CCN(C)CC5)CC4)cc3)nc2NC2CCOCC2)cc1 [compound 45],+ (+ indicates an inhibition less than or equal to 20%)
21,CN1CCN(C2CCN(c3ccc(Nc4nc(N5CCCCC5)c(-c5ccccc5)nc4C(N)=O)cc3)CC2)CC1 [compound 15],+ (+ indicates an inhibition less than or equal to 20%)

row,SMILES,EGFR (del19/T790M/C797S) inhibition (%) (0.3 nM compound)
1,CN1CCN(C2CCN(c3ccc(Nc4nc(N[C@H]5CCOC5)c(-c5ccncc5)nc4C(N)=O)cc3F)CC2)CC1 [compound 645],+++ (+++ indicates an inhibition greater than 50%.)
2,CN1CCN(c2ccc(Nc3nc(NC4CCOCC4)c(-c4ccccc4C(N)=O)nc3C(N)=O)cc2)CC1 [compound 36],+ (+ indicates an inhibition less than or equal to 20%)
3,CN(C)CCNc1nc(Nc2ccc(N3CCC(N4CCN(C)CC4)CC3)cc2)c(C(N)=O)nc1-c1ccccc1 [compound 28],+ (+ indicates an inhibition less than or equal to 20%)
4,NC(=O)c1nc(-c2ccccn2)c(NC2CCOCC2)nc1Nc1ccc(N2CCC(N3CCN(C4CC4)CC3)CC2)cc1 [compound 207],++ (++ indicates an inhibition from 20% to 50%)
5,CC(C)Nc1nc(Nc2ccc(N3CCC(N4CCN(C)CC4)CC3)c(F)c2)c(C(N)=O)nc1-c1cc[nH]n1 [compound 622],+++ (+++ indicates an inhibition greater than 50%.)
6,CN1CCN(C2CCN(c3ccc(Nc4nc(NC5CCOCC5)c(-c5cccc(NS(C)(=O)=O)c5)nc4C(N)=O)cc3)CC2)CC1 [compound 90],+ (+ indicates an inhibition less than or equal to 20%)
7,CN1CCN(C2CCN(c3ccc(Nc4nc(NC5CCOCC5)c(-c5cc[nH]n5)nc4C(N)=O)cc3F)CC2)CC1 [compound 619],++ (++ indicates an inhibition from 20% to 50%)
8,CN1CCN(C2CCN(c3ccc(Nc4nc(OCC(F)(F)F)c(-c5ccccc5)nc4C(N)=O)cc3)CC2)CC1 [compound 25],+ (+ indicates an inhibition less than or equal to 20%)
9,COc1ccccc1-c1nc(C(N)=O)c(Nc2ccc(N3CCC(N4CCN(C)CC4)CC3)cc2)nc1NC1CCOCC1 [compound 42],+ (+ indicates an inhibition less than or equal to 20%)
10,CN1CCN(C2CCN(c3ccc(Nc4nc(NC5CCCC5)c(-c5ccncc5)nc4C(N)=O)cc3)CC2)CC1 [compound 640],+++ (+++ indicates an inhibition greater than 50%.)
11,CN1CCN(C2CCN(c3ccc(Nc4nc(NC5CCOCC5)c(-c5ccccc5N)nc4C(N)=O)cc3)CC2)CC1 [compound 98],+ (+ indicates an inhibition less than or equal to 20%)
12,CN1CCN(C2CCN(c3ccc(Nc4nc(NC5CC5)c(-c5ccncc5)nc4C(N)=O)cc3)CC2)CC1 [compound 631],+++ (+++ indicates an inhibition greater than 50%.)
13,CN1CCN(C2CCN(c3ccc(Nc4nc(NC5CCOCC5)c(-c5ccccc5Cl)nc4C(N)=O)cc3)CC2)CC1 [compound 63],+ (+ indicates an inhibition less than or equal to 20%)
14,CN1CCN(C2CCN(c3ccc(Nc4nc(NC5CCOCC5)c(-c5ccccc5O)nc4C(N)=O)cc3)CC2)CC1 [compound 99],+ (+ indicates an inhibition less than or equal to 20%)
15,CN1CCN(C2CCN(c3ccc(Nc4nc(NC5CCC5)c(-c5ccncc5)nc4C(N)=O)cc3)CC2)CC1 [compound 638],+++ (+++ indicates an inhibition greater than 50%.)
16,CN1CCN(C2CCN(c3ccc(Nc4nc(O[C@@H]5CCOC5)c(-c5ccccc5)nc4C(N)=O)cc3)CC2)CC1 [compound 16],+ (+ indicates an inhibition less than or equal to 20%)
17,CN1CCN(C2CCN(c3ccc(Nc4nc(NC5CCOCC5)c(-c5ccc(F)cc5)nc4C(N)=O)cc3)CC2)CC1 [compound 64],+ (+ indicates an inhibition less than or equal to 20%)
18,CN1CCN(C2CCN(c3ccc(Nc4nc(NC5CCOCC5)c(-c5ccoc5)nc4C(N)=O)cc3)CC2)CC1 [compound 91],++ (++ indicates an inhibition from 20% to 50%)
19,Cc1cnccc1-c1nc(C(N)=O)c(Nc2ccc(N3CCC(N4CCN(C)CC4)CC3)cc2)nc1NC1CCOCC1 [compound 56],+ (+ indicates an inhibition less than or equal to 20%)
20,CN1CCN(C2CCN(c3ccc(Nc4nc(N[C@H]5C[C@@H](O)C5)c(-c5cc[nH]n5)nc4C(N)=O)cc3F)CC2)CC1 [compound 620],++ (++ indicates an inhibition from 20% to 50%)
